Experimental data published in DBAASP.
≈ marks a conversion by molar mass, not a printed value. Where “and” joins values, the source holds several entries; their conditions need not be identical. Equal values may be shown once.

How the values were obtained:
Experiment in all cases: ≥ marks a high value that may be exact or a test limit, other limits are often not marked, values filed in µg/mL are converted to µM
[1] = test system: Pseudomonas aeruginosa ATCC 27853
Bacillus subtilis = test system: Bacillus subtilis
Pseudomonas aeruginosa = test system: Pseudomonas aeruginosa
Enterococcus faecium = test system: Enterococcus faecium
Staphylococcus aureus = test system: Staphylococcus aureus
Candida albicans = test system: Candida albicans
Candida albicans 1 = test system: Candida albicans 1
Vibrio anguillarum = test system: Vibrio anguillarum
Proteus vulgaris = test system: Proteus vulgaris
[2] = test system: Staphylococcus epidermidis
Escherichia coli 1 = test system: Escherichia coli 1
Candida glabrata = test system: Candida glabrata
Aspicilia cinerea = test system: Aspicilia cinerea
Klebsiella pneumoniae 1 = test system: Klebsiella pneumoniae 1
Vibrio splendidus = test system: Vibrio splendidus
[3] = test system: Staphylococcus aureus ATCC 25923
Klebsiella pneumoniae = test system: Klebsiella pneumoniae
Acinetobacter baumannii = test system: Acinetobacter baumannii
Proteus mirabilis = test system: Proteus mirabilis
Staphylococcus aureus 1 = test system: Staphylococcus aureus 1
[4] = test system: Acinetobacter baumannii 1
[5] = test system: Vibrio parahaemolyticus ATCC 17802
Vibrio cholerae = test system: Vibrio cholerae
Bacillus cereus = test system: Bacillus cereus
Vibrio parahaemolyticus = test system: Vibrio parahaemolyticus
[6] = test system: Pseudomonas aeruginosa PAO1
[7] = test system: Staphylococcus aureus USA 300 LAC
[8] = test system: Escherichia coli ATCC 25922
[9] = test system: Staphylococcus aureus USA 300
[10] = test system: Klebsiella pneumoniae ATCC 13883
[11] = test system: Pseudomonas aeruginosa ATCC 15442
Enterobacter cloacae = test system: Enterobacter cloacae
[12] = test system: Acinetobacter baumannii ATCC 15308
Citrobacter sp. = test system: Citrobacter sp.
Streptococcus pneumoniae = test system: Streptococcus pneumoniae
[13] = test system: Candida parapsilosis ATCC 22019
Escherichia coli ML-35p = test system: Escherichia coli ML-35p
[14] = test system: Streptococcus pyogenes ATCC 19615
[15] = test system: Staphylococcus aureus ST1065
Saccharomyces cerevisiae = test system: Saccharomyces cerevisiae
[16] = test system: Candida albicans ATCC 90028
[17] = test system: Salmonella enterica subsp. enterica serovar Enteritidis
[18] = test system: Acinetobacter baumannii ATCC 19606
[19] = test system: Enterococcus faecalis ATCC 29212
Listeria ivanovii = test system: Listeria ivanovii
Pseudomonas aeruginosa 2 = test system: Pseudomonas aeruginosa 2
Escherichia coli C600 = test system: Escherichia coli C600
Pseudomonas aeruginosa 1 = test system: Pseudomonas aeruginosa 1
[20] = test system: Staphylococcus aureus ATCC 33591
Escherichia coli = test system: Escherichia coli
[21] = test system: Staphylococcus aureus 209P
Klebsiella pneumoniae 2 = test system: Klebsiella pneumoniae 2

What does the source list for `CC[C@H](C)[C@H](NC(=O)[C@H](CCCCN)NC(=O)[C@H](CC(C)C)NC(=O)[C@H](C)NC(=O)CNC(=O)[C@H](CC(N)=O)NC(=O)[C@H](CC(C)C)NC(=O)[C@@H](NC(=O)[C@H](CCCCN)NC(=O)[C@H](CCCCN)NC(=O)[C@H](Cc1c[nH]c2ccccc12)NC(=O)[C@H](Cc1ccccc1)NC(=O)[C@H](CCCCN)NC(=O)[C@H](CCCN=C(N)N)NC(=O)[C@H](CCCN=C(N)N)NC(=O)[C@@H](N)[C@@H](C)O)C(C)C)C(=O)N[C@@H](C)C(=O)N1CCC[C@H]1C(=O)N[C@@H](Cc1ccccc1)C(=O)N[C@@H](CC(C)C)C(=O)N[C@@H](CC(C)C)C(=O)NCC(=O)O` [TRRKFWKKVLNGALKIAPFLLG]?
MIC [1]: 7.33 µM (≈ 18.8 µg/mL); MIC (Bacillus subtilis): 0.919 µM (≈ 2.35 µg/mL); MIC (Pseudomonas aeruginosa): 5.19 µM (≈ 13.3 µg/mL); MIC (Enterococcus faecium): 7.33 µM (≈ 18.8 µg/mL); MIC (Staphylococcus aureus): 14.7 µM (≈ 37.5 µg/mL); MIC (Candida albicans): 14.7 µM (≈ 37.5 µg/mL); MIC (Candida albicans 1): 5.19 µM (≈ 13.3 µg/mL); MIC (Vibrio anguillarum): 1.83 µM (≈ 4.69 µg/mL); MIC (Proteus vulgaris): ≥ 78.2 µM; MIC [2]: 7.33 µM (≈ 18.8 µg/mL); MIC (Escherichia coli 1): 7.33 µM (≈ 18.8 µg/mL); MIC (Candida glabrata): 14.7 µM (≈ 37.5 µg/mL); MIC (Aspicilia cinerea): 7.33 µM (≈ 18.8 µg/mL); MIC (Klebsiella pneumoniae 1): ≥ 78.2 µM; MIC (Vibrio splendidus): 1.83 µM (≈ 4.69 µg/mL); MIC [3]: 14.7 µM (≈ 37.5 µg/mL); MIC (Klebsiella pneumoniae): 5.19 µM (≈ 13.3 µg/mL); MIC (Acinetobacter baumannii): ≥ 78.2 µM; MIC (Proteus mirabilis): 1.83 µM (≈ 4.69 µg/mL); MIC (Staphylococcus aureus 1): 5.19 µM (≈ 13.3 µg/mL); MIC [4]: 7.33 µM (≈ 18.8 µg/mL); MIC [5]: 1.83 µM (≈ 4.69 µg/mL); MIC (Vibrio cholerae): 7.33 µM (≈ 18.8 µg/mL); MIC (Bacillus cereus): 7.33 µM (≈ 18.8 µg/mL); MIC (Vibrio parahaemolyticus): 1.83 µM (≈ 4.69 µg/mL)

How did the MIC [6] turn out when `CC[C@H](C)[C@H](NC(=O)[C@H](CCCN=C(N)N)NC(=O)[C@H](CCCN=C(N)N)NC(=O)[C@H](CC(C)C)NC(=O)[C@H](Cc1c[nH]c2ccccc12)NC(=O)[C@H](Cc1c[nH]c2ccccc12)NC(=O)[C@@H](N)Cc1c[nH]c2ccccc12)C(=O)N[C@@H](CCCN=C(N)N)C(N)=O` [WWWLRRIR] was run?
Its MIC is 12.5 µM (≈ 15.9 µg/mL).

And the MIC [7]?
The MIC was 12.5 µM (≈ 15.9 µg/mL).

What about the MIC [8] of the same compound?
Its MIC is 25 µM (≈ 31.8 µg/mL).

And the MIC [9]?
The MIC was 12.5 µM (≈ 15.9 µg/mL).

And the MIC [10]?
Its MIC is 25 µM (≈ 31.8 µg/mL).

With `NC(=O)[C@H](CCCN=C(N)N)NC(=O)[C@H](CCCN=C(N)N)NC(=O)[C@H](Cc1c[nH]c2ccccc12)NC(=O)[C@@H]1CCCN1C(=O)[C@H](Cc1c[nH]c2ccccc12)NC(=O)[C@H](CCCN=C(N)N)NC(=O)[C@@H]1CCCN1C(=O)[C@H](Cc1c[nH]c2ccccc12)NC(=O)[C@H](CCCN=C(N)N)NC(=O)[C@H](Cc1c[nH]c2ccccc12)NC(=O)[C@@H]1CCCN1C(=O)[C@H](CCCN=C(N)N)NC(=O)[C@@H](N)CCCN=C(N)N` [RRPWRWPRWPWRR] as the compound, how does the MIC (Staphylococcus aureus) read?
Its MIC is 31.4 µM (≈ 62.5 µg/mL).

What about the MIC [11] of the same compound?
The MIC was 15.7 µM (≈ 31.2 µg/mL).

And the MIC (Enterobacter cloacae)?
The MIC was ≥ 126 µM.

What about the MIC [8] of the same compound?
The MIC was 15.7 µM (≈ 31.2 µg/mL).

What about the MIC [3] of the same compound?
The MIC was 15.7 µM (≈ 31.2 µg/mL).

And the MIC (Klebsiella pneumoniae)?
Its MIC is > 126 µM.

What about the MIC [12] of the same compound?
The MIC was ≥ 126 µM.

And the MIC (Citrobacter sp.)?
The MIC was ≥ 126 µM.

What about the MIC (Streptococcus pneumoniae) of the same compound?
The MIC was 31.4 µM (≈ 62.5 µg/mL).

For `CC[C@H](C)[C@H](NC(=O)CNC(=O)[C@H](CO)NC(=O)[C@H](C)NC(=O)[C@@H](N)Cc1ccccc1)C(=O)N[C@@H](C)C(=O)NCC(=O)N[C@@H](CCSC)C(=O)N[C@@H](C)C(=O)NCC(=O)N[C@@H](CCCCN)C(=O)N[C@@H](CC(C)C)C(=O)N[C@@H](Cc1ccccc1)C(N)=O` [FASGIAGMAGKLF], which MIC [1] is on record?
The MIC was > 200 µM.

What about the MIC [13] of the same compound?
Its MIC is ≥ 200 µM.

And the MIC (Escherichia coli ML-35p)?
The MIC was ≥ 200 µM.

And the MIC [14]?
Its MIC is ≥ 200 µM.

And the MIC [15]?
The MIC was ≥ 200 µM.

What about the MIC [8] of the same compound?
Its MIC is > 200 µM.

What about the MIC [3] of the same compound?
The MIC was > 200 µM.

And the MIC (Saccharomyces cerevisiae)?
The MIC was ≥ 200 µM.

And the MIC [16]?
Its MIC is ≥ 200 µM.

What about the MIC [17] of the same compound?
Its MIC is ≥ 200 µM.

And the MIC [18]?
Its MIC is > 200 µM.

And the MIC [19]?
The MIC was > 200 µM.

And the MIC (Listeria ivanovii)?
The MIC was ≥ 200 µM.

And the MIC [10]?
Its MIC is ≥ 200 µM.

Which results are given for `CC(C)[C@@H]1NC(=O)CNC(=O)[C@H](CCCN=C(N)N)NC(=O)[C@H](C(C)C)NC(=O)[C@@H]2CSSC[C@H](NC1=O)C(=O)N[C@@H](Cc1ccc(O)cc1)C(=O)N[C@@H](CCCN=C(N)N)C(=O)N[C@@H](CCCN=C(N)N)C(=O)N[C@H](C(=O)N[C@@H](Cc1c[nH]c3ccccc13)C(=O)O)CSSC[C@H](NC(=O)[C@H](Cc1c[nH]c3ccccc13)NC(=O)[C@@H](N)CCCN=C(N)N)C(=O)N[C@@H](C(C)C)C(=O)N[C@@H](Cc1ccc(O)cc1)C(=O)N[C@@H](C)C(=O)N2` [RWCVYACVRGVCYRRCW]?
MIC (Pseudomonas aeruginosa 2): 2 µM (≈ 4.35 µg/mL); MIC [6]: 3.13 µM (≈ 6.81 µg/mL); MIC (Escherichia coli C600): 1.56 µM (≈ 3.39 µg/mL); MIC (Pseudomonas aeruginosa 1): 2 µM (≈ 4.35 µg/mL); MIC (Escherichia coli 1): 1 µM and 0.5 µM; MIC (Klebsiella pneumoniae 1): 1 µM and 2 µM; MIC [20]: 0.12 µM (≈ 0.261 µg/mL); MIC (Escherichia coli): 0.5 µM and 1 µM; MIC [21]: 3.13 µM (≈ 6.81 µg/mL); MIC (Klebsiella pneumoniae 2): 2 µM and 4 µM
